Where two headings read alike, the source gives them in different places.

Data set [1] concerns HCV genotype 1b replicon (BM4-5). In words: anti-HCV activity in genotype 1b replicon (BM4-5). To be noted: for EC50: Hepatitis C virus, BM4-5, read-out: EC50 (μM) BM4-5(1b). The format is cell-based, hepatitis C virus. Background: Replicon systems follow genome replication, usually without infectious particles.
Data set [2] has as its system HCV genotype 2a replicon (JFH-1). In words: anti-HCV activity in genotype 2a replicon (JFH-1). The class given is cell-based, hepatitis C virus. The settings on record: Hepatitis C virus, read-out: EC50 (μM) JFH-1 (2a).
Another data set relates to HIV-1NL43. Briefly: HIV-1 replication in human peripheral blood mononuclear cells. The class given is cell-based.
Data set [3] concerns Vaccinia. The settings on record: reported previously; read-out: EC50 for vaccinia inhibition; cited from earlier work.
For data set [4], the system named is Cowpox. The settings on record: data from Beadle et al.; cited from earlier work.
In data set [5] the test system is HCMV. To be noted: data from Beadle et al.; cited from earlier work.
A short description of a further data set: in vitro. The settings on record: human, HFF fibroblasts.
Data set [6] in a line: cytotoxicity in MT-2 cells. To be noted: human.
The next data set relates to MT-2 cells. Briefly: cytotoxicity in MT-2 cells. The settings on record: MT-2 cells.
Data set [7] relates to HIV-1. Briefly: microbe, parasite or virus in culture. To be noted: Human immunodeficiency virus 1, MT2.
The nature of data set [8]: cytotoxicity (CC50) in HCV replicon cells / Huh 7.5 liver cells. To be noted: human.
The subject of data set [9] is Vaccinia. In words: microbe, parasite or virus in culture. The format is cell-based. To be noted: Orthopoxvirus vaccinia.
The test system of data set [10] is Cowpox. Briefly: organism not typed. The class given is cell-based. To be noted: read-out: EC50 (μM) Cowpox.
Data set [11] deals with HCMV. Briefly: antiviral activity against HCMV, plaque reduction assay in HFF cells. To be noted: Human betaherpesvirus 5, HFF, read-out: EC50 (μM) HCMV. The format is cell-based, human cytomegalovirus. For orientation: Plaques are areas of infected cells; plaque reduction assays count them against a control.
In a further data set the test system is HSV-1. In words: antiviral activity against HSV-1, plaque reduction assay in HFF cells. The format is cell-based, herpes simplex virus, type 1. To be noted: Human alphaherpesvirus 1, HFF, read-out: EC50 (μM) HSV-1.
Data set [12] relates to HIV-1. The settings on record: HIV-1 infected MT-2 cells.
Data set [13] in a line: cytotoxicity in human PBMCs.
The subject of another data set is Huh 7.5 cells. In words: cytotoxicity (CC50) in HCV replicon cells / Huh 7.5 liver cells. To be noted: cytotoxicity in replicon cells.

As for `CCCCCCCCCCCCCCCCCCOCCOP(=O)(O)CO[C@H](CO)Cn1cnc2c(N)ncnc21` [Cmpd 1, octadecyloxyethyl 9-(S)-[3-hydroxy-2-(phosphonomethoxy)propyl]adenine, reference compound], the EC50 in data set [1] is 1.55 ± 0.5 µM; in data set [2], 1.65 ± 0.33 µM; in the data set on Vaccinia [3], 0.02 µM; with Cowpox [4] it was 0.05 ± 0.04 µM; in the data set on HCMV [5] it was 0.003 ± 0.001 µM; in the data set with HIV-1 [7], 0.0001 µM. In addition, in the data set with HIV-1NL43 (HIV-1 infected human PBMCs), the “activity against HIV-1 in human PBMCs (in words)” value is “highly active and selective”. Also, the CC50 in “in vitro” turned out to be 0.58 ± 0.3 µM; in data set [6], 0.03 ± 0.02 µM; in the data set with MT-2 cells it was 0.033 µM; in data set [8] it was 35.6 µM.
Turning to `CCCCCCCCCCCCCCCCCCOCCOP(=O)(O)CO[C@H](COC)Cn1cnc2c(N)ncnc21` [Cmpd 15, Octadecyloxyethyl (S)-9-[(3-methoxy-2-phosphonomethoxy)propyl]adenine], in [1] (HCV replication in vitro), the “anti-HCV activity (in words)” value is on record as “potent inhibitory activity”. Besides, the EC50 is 1.43 ± 0.38 µM in [1]; 2.38 ± 1.09 µM in data set [2]; 18.3 ± 2.4 µM with Vaccinia [9] (read-out: EC50 (μM) Vaccinia); 18.3 µM in the data set on Vaccinia [9] (read-out: EC50 for vaccinia inhibition); > 20 µM in the data set on Cowpox [10]; 1.55 ± 0.4 µM with HCMV [11]. Besides, the EC50 in the data set on HSV-1 was 45.7 ± 10.1 µM; in the data set on HIV-1NL43 (Human immunodeficiency virus 1, PBMC, HIV-1NL43 in human PBMCs), ~0.005 µM; in the data set with HIV-1 [7] it was 0.03 µM. In the data set with HIV-1 [12], the “anti-HIV activity (in words)” value was “potent inhibitory activity”. Besides, the CC50 in the data set “in vitro” is 23.8 ± 2.6 µM; in data set [13], > 10 µM; in data set [8] (Huh 7.5 liver cells) it was > 150 µM; in the data set with Huh 7.5 cells, > 150 µM.

The term EC50 denotes the concentration giving half of the maximal effect.

The values above are taken from patent publication US8846643B2, “Phosphonates with reduced toxicity for treatment of viral infections” (The Regents of the University of California, priority 2010, dated 2014).
